Results on 30 compounds are retold here after patent US9555039B2, “Piperidine derivatives and compositions for the inhibition of nicotinamide phosphoribosyltransferase (NAMPT)” (Forma TM, LLC., priority 2011, dated 2017).

Usually IC50 stands for the concentration that gives 50% inhibition.

One assay relates to A2780 cells. The experiment in a line: In-vitro cell proliferation assay (SRB, 72 hours). The class given is cell-based. To be noted: sulforhodamine B (SRB) assay. The gist of the method: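 Background from media-only plate subtracted; inhibition relative to DMSO-treated cells, value derived by interpolation between two concentrations.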
In assay [1] the target is T1, Recombinant His-tagged NAMPT (Homo sapiens, UniProt P43490).
T1 construct: His; host or cells: E. coli
T1 sequence (P43490 whole entry): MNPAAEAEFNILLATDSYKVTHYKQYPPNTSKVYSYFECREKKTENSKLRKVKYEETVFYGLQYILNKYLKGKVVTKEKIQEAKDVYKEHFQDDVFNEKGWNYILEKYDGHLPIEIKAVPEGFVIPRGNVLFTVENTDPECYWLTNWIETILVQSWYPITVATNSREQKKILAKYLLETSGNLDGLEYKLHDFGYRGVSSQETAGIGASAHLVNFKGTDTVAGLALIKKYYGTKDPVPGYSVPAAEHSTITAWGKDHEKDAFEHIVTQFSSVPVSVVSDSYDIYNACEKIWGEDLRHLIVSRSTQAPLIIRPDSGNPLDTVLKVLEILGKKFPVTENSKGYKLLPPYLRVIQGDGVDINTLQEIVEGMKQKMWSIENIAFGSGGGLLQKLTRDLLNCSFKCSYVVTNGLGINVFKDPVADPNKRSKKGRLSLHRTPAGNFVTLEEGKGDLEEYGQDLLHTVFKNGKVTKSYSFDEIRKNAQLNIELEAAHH
In words: Biochemical inhibition assay: NAMPT enzymatic reaction, NMN quantified by mass spectrometry. The conditions noted are these: 33 nM NAMPT, 1 μM NAM, 100 μM PRPP, 30 minutes at room temperature, read-out: Biochem IC50. The gist of the method: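 Reaction 30 min at room temperature with 1 μM NAM, 100 μM PRPP, 2.5 mM ATP (final), quenched with formic acid. NMN quantified by RapidFire electrospray MS, normalized to L-cystathionine; IC50 from percent inhibition versus DMSO.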

Each structure is given as a SMILES string. Read-outs that look alike come from different tables or passages of the source.

Consider `O=C(NCCCCC1CCN(C(=O)C2CCCCC2)CC1)c1cc2ccncc2s1` [N-[4-(1-cyclohexanecarbonylpiperidin-4-yl)butyl]thieno[2,3-c]pyridine-2-carboxamide], for which the IC50 in the assay with A2780 cells (Homo sapiens) was determined as 72.7 nM; in assay [1] (2.5 mM ATP), 77.9 nM.
On the same counts, the results for `Cn1ccc(S(=O)(=O)N2CCC(CCCCNC(=O)c3cc4cnccc4[nH]3)CC2)n1` [N-{4-[1-(1-methyl-1H-pyrazole-3-sulfonyl)piperidin-4-yl]butyl}-1H-pyrrolo[3,2-c]pyridine-2-carboxamide] are 6.8 nM and 49.5 nM.
Turning to `Cc1ccc(F)cc1C(=O)N1CCC(CCCCNC(=O)c2ccc3nccn3c2)CC1` [N-(4-{1-[(5-fluoro-2-methylphenyl)carbonyl]piperidin-4-yl}butyl)imidazo[1,2-a]pyridine-6-carboxamide], the IC50 in the assay with A2780 cells (Homo sapiens) stood at 3.9 nM; in assay [1] (2.5 mM ATP), 10.9 nM.
For `O=C(NCCCCC1CCN(S(=O)(=O)c2ccc(F)cc2)CC1)c1cc2cnccc2[nH]1` [N-(4-{1-[(4-fluorobenzene)sulfonyl]piperidin-4-yl}butyl)-1H-pyrrolo[3,2-c]pyridine-2-carboxamide] the same measures were 17.6 nM and 48.9 nM.
For the compound `COc1ncc(Cl)cc1C(=O)N1CCC(CCCCNC(=O)c2cc3cnccc3[nH]2)CC1` [N-(4-{1-[(5-chloro-2-methoxypyridin-3-yl)carbonyl]piperidin-4-yl}butyl)-1H-pyrrolo[3,2-c]pyridine-2-carboxamide], the IC50 worked out at 3.3 nM in the assay on A2780 cells (Homo sapiens) and 30.3 nM in assay [1] (2.5 mM ATP).
On to `O=C(NCCCCC1CCN(C(=O)c2ccc(OC(F)(F)F)cc2)CC1)c1cc2cnccc2[nH]1` [N-[4-(1-{[4-(trifluoromethoxy)phenyl]carbonyl}piperidin-4-yl)butyl]-1H-pyrrolo[3,2-c]pyridine-2-carboxamide], for which the IC50 with A2780 cells (Homo sapiens) turned out to be 12.7 nM; in assay [1] (2.5 mM ATP), 145 nM.
For `Cc1cnc(C(=O)N2CCC(CCCCNC(=O)c3cc4ccncc4s3)CC2)cn1` [N-(4-{1-[(5-methylpyrazin-2-yl)carbonyl]piperidin-4-yl}butyl)thieno[2,3-c]pyridine-2-carboxamide] the same measures were 100 to 1000 nM and 68.5 nM.
As to `O=C(NCCCCC1CCN(S(=O)(=O)c2ccccc2OC(F)(F)F)CC1)c1cc2cnccc2[nH]1` [N-[4-(1-{[2-(trifluoromethoxy)benzene]sulfonyl}piperidin-4-yl)butyl]-1H-pyrrolo[3,2-c]pyridine-2-carboxamide], the IC50 was 3.3 nM in the assay with A2780 cells and 22.6 nM in assay [1] ([…] ATP).
`O=C(NCCCCC1CCN(S(=O)(=O)c2cc(F)ccc2F)CC1)c1cc2cnccc2[nH]1` [N-(4-{1-[(2,5-difluorobenzene)sulfonyl]piperidin-4-yl}butyl)-1H-pyrrolo[3,2-c]pyridine-2-carboxamide]: the IC50 in the assay on A2780 cells (Homo sapiens) is 5.8 nM; in assay [1] (2.5 mM ATP), 11.1 nM.
Take `O=C(NCCCCC1CCN(C(=O)c2ccc(C(F)(F)F)cc2)CC1)c1cc2cnccc2[nH]1` [N-[4-(1-{[4-(trifluoromethyl)phenyl]carbonyl}piperidin-4-yl)butyl]-1H-pyrrolo[3,2-c]pyridine-2-carboxamide]: the results for the IC50 (in the assay on A2780 cells (Homo sapiens); in assay [1] (2.5 mM ATP)) were 38.1 nM and 164 nM, respectively.
Turning to `O=C(NCCCCC1CCN(C(=O)c2ccc(C(F)(F)F)nc2)CC1)c1ccc2nccn2c1` [N-[4-(1-{[6-(trifluoromethyl)pyridin-3-yl]carbonyl}piperidin-4-yl)butyl]imidazo[1,2-a]pyridine-6-carboxamide], the IC50 with A2780 cells (Homo sapiens) is 93 nM; in assay [1] (2.5 mM ATP), 91.9 nM.
For `O=C(NCCCCC1CCN(C(=O)c2ccc(-n3cccn3)cc2)CC1)c1cc2ccncc2s1` [N-[4-(1-{[4-(1H-pyrazol-1-yl)phenyl]carbonyl}piperidin-4-yl)butyl]thieno[2,3-c]pyridine-2-carboxamide] the same measures were 100 to 1000 nM and 48.1 nM.
Take `Cc1ncsc1C(=O)N1CCC(CCCCNC(=O)c2cc3ccncc3s2)CC1` [N-(4-{1-[(4-methyl-1,3-thiazol-5-yl)carbonyl]piperidin-4-yl}butyl)thieno[2,3-c]pyridine-2-carboxamide]: the IC50 in the assay on A2780 cells (Homo sapiens) was determined as 0.8 nM; in assay [1] (2.5 mM ATP), 5.3 nM.
On the same counts, the results for `O=C(NCCCCC1CCN(C(=O)c2ccc3c(c2)OCO3)CC1)c1cc2ccncc2s1` [N-(4-{1-[(2H-1,3-benzodioxol-5-yl)carbonyl]piperidin-4-yl}butyl)thieno[2,3-c]pyridine-2-carboxamide] are 100 to 1000 nM and 21.1 nM.
On the same counts, the results for `O=C(NCCCCC1CCN(C(=O)c2ccc(F)c(F)c2)CC1)c1cc2cnccc2[nH]1` [N-(4-{1-[(3,4-difluorophenyl)carbonyl]piperidin-4-yl}butyl)-1H-pyrrolo[3,2-c]pyridine-2-carboxamide] are 20.6 nM and 56 nM.
On the same counts, the results for `Cc1nc(C)c(C(=O)N2CCC(CCCCNC(=O)c3ccc4nccn4c3)CC2)s1` [N-(4-{1-[(dimethyl-1,3-thiazol-5-yl)carbonyl]piperidin-4-yl}butyl)imidazo[1,2-a]pyridine-6-carboxamide] are 6.6 nM and 24.1 nM.
Turning to `COc1cccc(OC)c1C(=O)N1CCC(CCCCNC(=O)c2cc3ccncc3s2)CC1` [N-(4-{1-[(2,6-dimethoxyphenyl)carbonyl]piperidin-4-yl}butyl)thieno[2,3-c]pyridine-2-carboxamide], the IC50 in the assay with A2780 cells (Homo sapiens) is 1.2 nM; in assay [1] (2.5 mM ATP), 5.6 nM.
Consider `CC(C)c1ccc(C(=O)N2CCC(CCCCNC(=O)c3cc4ccncc4s3)CC2)nc1` [N-[4-(1-{[5-(propan-2-yl)pyridin-2-yl]carbonyl}piperidin-4-yl)butyl]thieno[2,3-c]pyridine-2-carboxamide], for which the IC50 is 100 to 1000 nM in the assay on A2780 cells (Homo sapiens) and 89.8 nM in assay [1] (2.5 mM ATP).
On the same counts, the results for `O=C(NCCCCC1CCN(C(=O)c2c(F)cccc2F)CC1)c1ccc2nccn2c1` [N-(4-{1-[(2,6-difluorophenyl)carbonyl]piperidin-4-yl}butyl)imidazo[1,2-a]pyridine-6-carboxamide] are 1.2 nM and 4.7 nM.
On the same counts, the results for `O=C(NCCCCC1CCN(C(=O)c2ccc(C(F)(F)F)cc2)CC1)c1cc2ccncc2s1` [N-[4-(1-{[4-(trifluoromethyl)phenyl]carbonyl}piperidin-4-yl)butyl]thieno[2,3-c]pyridine-2-carboxamide] are 1000 nM and 305 nM.
For `O=C(NCCCCC1CCN(C(=O)c2cc(Cl)cc(Cl)c2)CC1)c1cc2cnccc2[nH]1` [N-(4-{1-[(3,5-dichlorophenyl)carbonyl]piperidin-4-yl}butyl)-1H-pyrrolo[3,2-c]pyridine-2-carboxamide] the same measures were 13 nM and 81.3 nM.
In the case of `CC(C)Oc1ccc(C(=O)N2CCC(CCCCNC(=O)c3cc4cnccc4[nH]3)CC2)cc1` [N-[4-(1-{[4-(propan-2-yloxy)phenyl]carbonyl}piperidin-4-yl)butyl]-1H-pyrrolo[3,2-c]pyridine-2-carboxamide], the IC50 with A2780 cells (Homo sapiens) was 13.1 nM; in assay [1] (2.5 mM ATP) it was 93.7 nM.
For the compound `O=C(NCCCCC1CCN(C(=O)c2ccccc2OC(F)(F)F)CC1)c1cc2cnccc2[nH]1` [N-[4-(1-{[2-(trifluoromethoxy)phenyl]carbonyl}piperidin-4-yl)butyl]-1H-pyrrolo[3,2-c]pyridine-2-carboxamide], the IC50 in the assay with A2780 cells (Homo sapiens) was 1.3 nM; in assay [1] (2.5 mM ATP), 20.5 nM.
`Cc1ncsc1C(=O)N1CCC(CCCCNC(=O)c2cc3cnccc3[nH]2)CC1` [N-(4-{1-[(4-methyl-1,3-thiazol-5-yl)carbonyl]piperidin-4-yl}butyl)-1H-pyrrolo[3,2-c]pyridine-2-carboxamide]: the IC50 with A2780 cells (Homo sapiens) was determined as 1 nM; in assay [1] ([…] ATP), 5.4 nM.
As for `O=C(NCCCCC1CCN(C(=O)c2ccc3[nH]ccc3c2)CC1)c1ccc2nccn2c1` [N-(4-{1-[(1H-indol-5-yl)carbonyl]piperidin-4-yl}butyl)imidazo[1,2-a]pyridine-6-carboxamide], the IC50 in the assay with A2780 cells (Homo sapiens) was determined as 18.5 nM; in assay [1] (2.5 mM ATP), 19.5 nM.
For `O=C(NCCCCC1CCN(C(=O)c2ccc(Cl)c(Cl)c2)CC1)c1ccc2nccn2c1` [N-(4-{1-[(3,4-dichlorophenyl)carbonyl]piperidin-4-yl}butyl)imidazo[1,2-a]pyridine-6-carboxamide] the same measures were 100 to 1000 nM and 49 nM.
On the same counts, the results for `CCOc1ncccc1C(=O)N1CCC(CCCCNC(=O)c2cc3cnccc3[nH]2)CC1` [N-(4-{1-[(2-ethoxypyridin-3-yl)carbonyl]piperidin-4-yl}butyl)-1H-pyrrolo[3,2-c]pyridine-2-carboxamide] are 0.6 nM and 20.6 nM.
For `COc1ccc(C(=O)N2CCC(CCCCNC(=O)c3cc4cnccc4[nH]3)CC2)cc1OC` [N-(4-{1-[(3,4-dimethoxyphenyl)carbonyl]piperidin-4-yl}butyl)-1H-pyrrolo[3,2-c]pyridine-2-carboxamide], the IC50 in the assay on A2780 cells (Homo sapiens) worked out at 3 nM; in assay [1] (2.5 mM ATP) it was 68.6 nM.
For `O=C(NCCCCC1CCN(C(=O)c2cc3ccccc3s2)CC1)c1ccc2nccn2c1` [N-(4-{1-[(1-benzothiophen-2-yl)carbonyl]piperidin-4-yl}butyl)imidazo[1,2-a]pyridine-6-carboxamide], the IC50 in the assay with A2780 cells (Homo sapiens) amounted to 71.8 nM; in assay [1] (2.5 mM ATP), 25.8 nM.
For `O=C(NCCCCC1CCN(S(=O)(=O)c2cccc(OC(F)(F)F)c2)CC1)c1cc2cnccc2[nH]1` [N-[4-(1-{[3-(trifluoromethoxy)benzene]sulfonyl}piperidin-4-yl)butyl]-1H-pyrrolo[3,2-c]pyridine-2-carboxamide], the half-maximal inhibitory concentration (IC50) in the assay on A2780 cells turned out to be 18.7 nM; in assay [1] ([…] ATP), 77.8 nM.
